Consider seven molecules from US20240376070A1, “GPR52 MODULATOR COMPOUNDS” (NXERA PHARMA UK LIMITED, priority 2021, published 2024).

Values after ≈ are worked out from the molar mass of the structure shown.

Data set [1] is described as follows: Plasma concentration-time data after PO dose of Example 2 in Beagle dogs. Format: in vivo. The note with it: dog, PO Example 2, all time points. How it is done: (§1) Systemic exposure of Example 2 and Intermediate 6 (Example 39 of Applicant's earlier application PCT/GB2021/050638 (WO2021/181122A1)) were assessed in male Sprague-Dawley rats and male Beagle dogs following oral (per os, PO) administration of Example 2. Plasma concentration-time data (mean values±standard deviation) are detailed in Tables 4 and 5.
(§2) Three male Sprague-Dawley rats (weighing 269-270 g) and three male Beagle dogs (weighing 7-10 kg), were administered a single dose of Example 2 via PO route, using the dose and vehicle specified in Table #. Following dosing, blood samples were taken at several time points (pre-dose, 5 min, 15 min, 30 min, 1 h, 2 h, 4 h, 8 h, 12 h and 24 h in both species, plus additional samples at 32 h and 48 h in dog) via serial bleeding of jugular vein (rat) or cephalic vein (dog), and centrifuged to separate plasma for quantitative bioanalysis of Example 2 and Intermediate 6 by LC-MS/MS.

Data set [2] is described as follows: Thermodynamic solubility in biorelevant media. It is filed as physicochemical. The note with it: thermodynamic from solid. As for the experimental part: This experiment was designed to evaluate the thermodynamic solubility of Example 2 in various biorelevant media (Blank Fasted State Simulated Intestinal Fluid (FaSSIF) pH 6.5, FaSSIF pH 6.5 and simulated gastric fluid (SGF) without enzyme pH 1.2).
A 10 mM stock solution of Example 2 in dimethyl sulfoxide (DMSO) was prepared. From the 10 mM stock solution, a 1 mM intermediate solution of Example 2 in DMSO was prepared. A working solution of 1 μM of Example 2 was prepared by diluting the intermediate solution in mobile phase solution (methanol: 2 mM ammonium acetate containing suitable internal standard—carbamazepine). The working solution was serially diluted in mobile phase solution up to 8 linearity points to prepare standard solutions for plotting a calibration curve. The area for each standard solution was analyzed using LCMS/MS. The normalized area values were plotted vs. concentration to achieve a calibration equation.
Example 2 (1 mg) was added to 1 mL of each desired biorelevant media (SGF without enzyme pH 1.2, Blank FaSSIF pH 6.5 and FaSSIF pH 6.5) to achieve a theoretical concentration equivalent to 1 mg/mL.
The resulting solutions were then kept on RotoSpin (shaker) at 50 rpm for 4 hours at room temperature (25° C.). After the incubation period, the content was filtered through a 0.45 μm PVDF (hydrophilic) syringe filter and the filtrate was taken for quantification by LCMS/MS. The filtrate was diluted in mobile phase and subsequently, the area under the curve (AUC) was ascertained for diluted sample using LCMS/MS. From the AUC of test sample the corresponding concentration was calculated using 6 to 8 point linearity/calibration curve.

The nature of data set [3]: Plasma concentration-time data after PO dose of Example 2 in Sprague-Dawley rats. It is filed as in vivo. The note with it: rat, PO Example 2, all time points. How it is done: as §1, §2
The target of the next data set is T1, human GPR52 (Homo sapiens, UniProt Q9Y2T5).
T1 construct: expressed in transfected cells; host or cells: HEKf suspension cells, BacMam (modified baculovirus) transduction
The data set is described as follows: GPR52 Agonist Functional cAMP Assay. Format: cell-based. The note with it: HEKf cells infected with human GPR52 BacMam, cAMP HTRF, 30 min 37° C.; read-out: pEC50 average (converted). How it is done:
HEKf suspension cells were infected for 24 h with 0.1% v/v human GPR52 expressing BacMam virus, a modified baculovirus designed for mammalian gene expression. Following BacMam infection, cells were pelleted by centrifugation (335 g, 5 min), resuspended in cell freezing medium (Sigma) and frozen at −150° C. until required. On experiment day, 25 nL GPR52 compound dilutions, prepared in DMSO, were stamped onto proxiplates (PerkinElmer) by a LabCyte ECHO acoustic dispenser. Frozen cells were thawed and resuspended in assay stimulation buffer (Cisbio) containing 0.5 mM 3-iso-butyl-1-methylxanthine (IBMX, Sigma) to achieve a density of 2000 cells per well. 10 μl cells were added to assay plates using a Multidrop Combi Reagent Dispenser (ThermoFisher) before centrifugation (1 min). Cells were incubated with compounds at 37° C. for 30 min prior to addition of cAMP detection reagents (HiRange cAMP kit, Cisbio) which were prepared according to the manufacturer's instructions. Plates were shaken for 1 h at room temperature before reading on a PHERAstar FS plate reader (BMG Labtech) using standard HTRF settings. HTRF ratios were obtained by dividing the acceptor emissions (665 nm) by the donor emissions (620 nm) and multiplying by 10,000. […] Further pharmacokinetic data for Intermediate 6 is provided in Applicant's earlier application PCT/GB2021/050638 (see Example 39).

Data set [4] can be described thus: Rat IV brain penetration (Kp,uu). Format: in vivo, Sprague-Dawley rats. The following applies: male, Sprague-Dawley, brain and plasma, IV 1 mg/kg, n = 3, unbound brain-to-plasma ratio. How it is done: Plasma and brain exposure were evaluated to assess the brain penetration of Intermediate 6 (Example 39 of WO2021/181122A1), following IV administration. Unbound brain-to-plasma ratio (Kp,uu) was calculated, as detailed in Table 7, following experimental determination of binding in rat plasma and brain homogenate.
For brain penetration assessment, male Sprague-Dawley rats (n=3) were administered a single 1 mg/kg dose (formulated in 10% DMAC+10% Solutol HS15+80% saline) via the IV route. After 10 min post-dose, animals were sacrificed and brains extracted, homogenised with 2 volumes (w/v) of 50 mM sodium phosphate buffer (pH 7.4), and analysed by LC-MS/MS. Blood samples were removed at the same time point via tail vein bleed, centrifuged and the plasma analysed by LC-MS/MS.
To permit calculation of unbound brain-to-plasma ratio (Kp,uu), test compound binding in rat plasma and brain homogenate was performed, using Rapid Equilibrium Dialysis (RED). […]
After incubation, the contents of each plasma/brain and buffer compartment were removed and mixed with equal volumes of control dialysed buffer or plasma/brain to maintain matrix similarity for analysis. […] Fraction unbound (Fu) in plasma and brain was calculated using the following formula, then used to correct total plasma and brain concentrations to derive the Kp,uu:

Data set [5] relates to caffeine-induced hyperlocomotor response. As to the kind of experiment: Caffeine-induced locomotor activity in rat. It is filed as in vivo, Sprague-Dawley rats. The following applies: rat, 0.1, 0.3, 1 and 3 mg/kg PO, 60 min before caffeine 15 mg/kg s.c., 2 h activity. The text has this:
Caffeine, a non-selective adenosine receptor antagonist, is a psychostimulant which increases rodent locomotor activity principally via blockade of A2A receptors (Br. J. Pharmacol., 2000, 129, 1465). These receptors are densely expressed on the terminals of GABAergic striatopallidal neurons in the indirect pathway of the basal ganglia, in which dopamine D2 receptors are co-expressed (J. Comp. Neurol., 1998, 401, 163; J. Comp. Neurol., 2001, 431, 331). Tonic activation of A2A receptors decreases the affinity of D2 receptors to dopamine and antagonism of A2A receptors facilitates dopaminergic signalling (Curr. Pharm. Des., 2008, 14, 1468). […] Male Sprague-Dawley rats (200-250 g) were housed in groups with a 12 h light/dark cycle (lights on at 07.00), at an ambient temperature of 21±2° C. and with standard pelleted diet and water ad libitum. Testing was carried out in the light phase. On the day of the experiment, animals were habituated to the locomotor cages for a 60-minute period. Subsequently, they were dosed with vehicle or Intermediate 6 (Example 39 of WO2021/181122A1) (0.1, 0.3, 1 and 3 mg/kg) by the oral route and returned to the appropriate locomotor cage. […] Locomotor activity was assessed for a 2 h period after caffeine treatment. […] SEMs were calculated from the residuals of the statistical model. […]

A short description of another data set: Rat IV pharmacokinetics. It is filed as in vivo, Sprague-Dawley rats. The note with it: male, Sprague-Dawley, plasma, IV 1 mg/kg, n = 3. As for the experimental part: The pharmacokinetic profiles of Intermediate 6 (Example 39 of WO2021/181122A1) were assessed in male Sprague-Dawley rats via intravenous (IV) delivery. Pharmacokinetic data (mean values±standard deviation) for Intermediate 6 (Example 39 of WO2021/181122A1) are detailed in Table 7.
For pharmacokinetic analysis, groups of three male Sprague-Dawley rats, ranging in weight between 200 and 230 g, were administered a single dose of Intermediate 6 (Example 39 of WO2021/181122A1) via IV, using the dose, dose volume and vehicle specified in Table 7. Following dosing, blood samples were taken at several time points (pre-dose, 2 min, 5 min, 15 min, 30 min, 1 h, 3 h, 6 h, 12 h and 24 h for IV) via serial tail vein bleeds, and centrifuged to separate plasma for analysis by LC-MS/MS. WinNonlin v8.2 statistics software (Pharsight Corporation, California, USA) was used to generate pharmacokinetic parameters using non-compartmental analysis.

T1 sequence (Q9Y2T5 whole entry): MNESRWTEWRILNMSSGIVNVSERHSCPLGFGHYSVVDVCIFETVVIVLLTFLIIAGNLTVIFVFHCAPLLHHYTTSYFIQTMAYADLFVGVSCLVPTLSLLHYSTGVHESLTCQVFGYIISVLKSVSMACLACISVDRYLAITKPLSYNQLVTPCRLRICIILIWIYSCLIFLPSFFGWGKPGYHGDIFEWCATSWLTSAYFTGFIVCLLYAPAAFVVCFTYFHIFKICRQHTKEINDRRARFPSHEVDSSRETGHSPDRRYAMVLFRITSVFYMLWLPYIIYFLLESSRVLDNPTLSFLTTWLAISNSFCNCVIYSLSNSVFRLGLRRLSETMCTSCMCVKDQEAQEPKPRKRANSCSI

As usually defined, the solubility is how much of the substance goes into solution per volume. Low values mean a poorly soluble substance, high ones a readily soluble substance. As to `Cc1nn(-c2cc(Cc3cc(F)cc(C(F)(F)F)c3)ccn2)c(COP(=O)(O)O)c1C(N)=O` [Example 2], the “Plasma concentrations of Example 2” value in data set [1] and in data set [3] was less than 1 ng/mL each time. Also, the solubility at 4 h in data set [2] (SGF without enzyme, simulated gastric fluid, SGF, pH 1.2, 25° C.) was 13.1 µM (≈ 6.38 µg/mL); in data set [2] (fassgf or other biorelevant, Blank FaSSIF, pH 6.5, 25° C.) it was 1890 µM (≈ 922 µg/mL); in data set [2] (FaSSIF, pH 6.5, 25° C.) it was 1830 µM (≈ 894 µg/mL).
In the case of `Cc1nn(-c2cc(Cc3cc(F)cc(C(F)F)c3)ccn2)c(CO)c1C(N)=O` [Intermediate 16, 1-(4-(3-(difluoromethyl)-5-fluorobenzyl)pyridin-2-yl)-5-(hydroxymethyl)-3-methyl-1H-pyrazole-4-carboxamide], the EC50 at human GPR52 is 3.98 nM.
Still for that read-out and setting: as for `Cc1nn(-c2cc(Cc3cc(F)cc(C(F)(F)F)c3)ccn2)c(CO)c1C(=O)NCCO` [Intermediate 7, 1-(4-(3-fluoro-5-(trifluoromethyl)benzyl)pyridin-2-yl)-N-(2-hydroxyethyl)-5-(hydroxymethyl)-3-methyl-1H-pyrazole-4-carboxamide], the figure is 2.51 nM; as for `Cc1nn(-c2ccnc(Cc3cc(F)cc(C(F)(F)F)c3)c2)c(CO)c1C(=O)NCCO` [Intermediate 11, 1-(2-(3-fluoro-5-(trifluoromethyl)benzyl)pyridin-4-yl)-N-(2-hydroxyethyl)-5-(hydroxymethyl)-3-methyl-1H-pyrazole-4-carboxamide], 31.6 nM.
On to `CNC(=O)c1c(C)nn(-c2cc(Cc3cc(F)cc(C(F)(F)F)c3)ccn2)c1CO` [Intermediate 12, 1-(4-(3-fluoro-5-(trifluoromethyl)benzyl)pyridin-2-yl)-5-(hydroxymethyl)-N,3-dimethyl-1H-pyrazole-4-carboxamide], for which, on human GPR52, the EC50 was 10 nM.
One may read the clearance as the rate of elimination divided by the concentration. Low readings indicate inefficient removal, high ones efficient removal. `Cc1nn(-c2cc(Cc3cc(F)cc(C(F)(F)F)c3)ccn2)c(CO)c1C(N)=O` [Intermediate 6, 1-(4-(3-fluoro-5-(trifluoromethyl)benzyl)pyridin-2-yl)-5-(hydroxymethyl)-3-methyl-1H-pyrazole-4-carboxamide]: the Kp uu at 10 min in data set [4] worked out at 0.42 ± 0.08. Moreover, the “effect on caffeine-induced hyperlocomotor response” value in data set [5] was “dose-dependent reduction of the caffeine-induced hyperlocomotor response, reaching statistical significance at 1 and 3 mg/kg”. For the same molecule, the EC50 at human GPR52 is 6.31 nM. In addition, the clearance in “Rat IV pharmacokinetics” was 0.528 ± 0.066 L/h/kg.
With `Cc1nn(-c2ccnc(Cc3cc(F)cc(C(F)(F)F)c3)c2)c(CO)c1C(N)=O` [Intermediate 10, 1-(2-(3-fluoro-5-(trifluoromethyl)benzyl)pyridin-4-yl)-5-(hydroxymethyl)-3-methyl-1H-pyrazole-4-carboxamide], on human GPR52, the EC50 is 31.6 nM.
